In patent US20260234161A1, “RIFABUTIN ANALOGS FOR THE TREATMENT OF BACTERIAL DISEASES” (BIOVERSYS AG, priority 2023, published 2026):
≈ marks a conversion by molar mass, not a printed value. Where two headings read alike, the source gives them in different places.

Columns and labels:
Assay type in all cases: cell-based
[1] = tested on: A. baumannii (HUMC1 strain); assay: MIC by broth microdilution, A. baumannii (RPMI + 10% FCS); conditions: Acinetobacter baumannii, read-out: MIC A. baumannii
Description: (§1) MIC values were determined by broth microdilution method according to the CLSI guidelines with the following exceptions: MIC against A. baumannii was performed in RPMI medium supplemented with 10% FCS and MIC against M. abscessus was performed in Middlebrook 7H9 broth supplemented with Middlebrook ADC growth supplement (10%; see column “M. abscessus 7H9”). MIC forM abscessus was determined a second time in standard cation adjusted Mueller Hinton broth without growth supplement (see colum “M. abscessus MH”). All other MIC were performed in standard cation adjusted Mueller Hinton broth, supplemented with Middlebrook ADC growth supplement (5%) for the slow growing mycobacteria (M. xenopi, M. kansasii and M. avium).
(§2) The following procedure applies to all species tested, except forM xenopi. From a fresh culture plate (from overnight to several days depending on the bacteria), cells were resuspended in 0.9% (w/v) saline solution and bacterial inoculum was prepared in the respective testing medium with 5×10^5 CFU/mL. For M. xenopi, the inoculum was prepared from a fresh liquid culture (7H9+ADC). The appropriate volumes of a 10 mg/mL compound solution were directly dispensed in the 96-well assay plate using a digital dispenser to create two-fold dilution series from 32 to 0.002 μg/mL final concentration for A. baumannii and S. aureus; from 16 to 0.016 μg/mL for M. abscessus and M. avium; and from 1 to 6×10^−5 μg/mL for M. kansasii and M. xenopi. 100 μL of bacterial suspension was finally added to the compounds. Plates were covered and incubated without shaking at 35° C. for 20 hours for A. baumanii and S. aureus; at 30° C. for 4 days for M. abscessus; and at 37° C. for 7 days (at least) for M. kansasii (covered with aluminum foil to avoid light exposure), M. avium and M. xenopi. Every experiment contained an antibiotic as quality control. MIC was determined visually as the lowest concentration of a compound that prevents visible growth of the bacteria.
(§3) The in vitro activity of compounds described herein was determined against S. aureus (UAMS-1625 strain), A. baumannii (HUMC1 strain), M. abscessus (ATCC 19977), M. kansasii (ATCC 12478), M. avium (ATCC 25291), and M. xenopi (ATCC 19250).

[2] = tested on: M. abscessus (ATCC 19977); assay: MIC by broth microdilution, M. abscessus in cation adjusted Mueller Hinton broth; conditions: Mycobacteroides abscessus
Description: as §1, §2, §3

[3] = tested on: S. aureus (UAMS-1625 strain); assay: MIC by broth microdilution, S. aureus; conditions: Staphylococcus aureus, 20 h, read-out: MIC S. aureus
Description: as §1, §2, §3

[4] = tested on: M. abscessus (ATCC 19977); assay: MIC by broth microdilution, M. abscessus in Middlebrook 7H9 broth + ADC; conditions: Mycobacteroides abscessus
Description: as §1, §2, §3

M. kansasii (ATCC 12478) = assay: MIC by broth microdilution, M. kansasii; conditions: Mycobacterium kansasii, ATCC12478, 168 h, cation adjusted Mueller Hinton broth + ADC (5%), 37° C., 7 days (at least)
Description: as §1, §2, §3

M. avium (ATCC 25291) = assay: MIC by broth microdilution, M. avium; conditions: Mycobacterium avium, ATCC25291, 168 h, cation adjusted Mueller Hinton broth + ADC (5%), 37° C., 7 days (at least)
Description: as §1, §2, §3

M. xenopi (ATCC 19250) = assay: MIC by broth microdilution, M. xenopi; conditions: Mycobacterium xenopi, ATCC19250, 168 h, cation adjusted Mueller Hinton broth + ADC (5%), 37° C., 7 days (at least)
Description: as §1, §2, §3

[5] = HUMC1 strain, RPMI medium + 10% FCS, 35° C., 20 hours
[6] = ATCC19977, 96 h, ATCC 19977, cation adjusted Mueller Hinton broth without growth supplement, 30° C., 4 days, read-out: MIC M. abscessus MH
[7] = ATCC19977, 96 h, ATCC 19977, Middlebrook 7H9 broth + ADC growth supplement (10%), 30° C., 4 days, read-out: MIC M. abscessus 7H9

`CO[C@H]1/C=C/O[C@@]2(C)Oc3c(C)c(O)c4c(c3C2=O)C2=NC3(CCN(CC(C)C)CC3)NC2=C(NC(=O)/C(C)=C\C=C\[C@H](C)[C@H](O)[C@@H](C)[C@@H](O)[C@@H](C)[C@H](OC(=O)N2CCN(CCN3CCCCC3)CC2)[C@@H]1C)C4=O` [Compound 12] was tested, and the MIC [1, 5] was no more than 0.002 µg/mL, the MIC [2, 6] was 1 µg/mL (≈ 0.972 µM) and the MIC [3] was 0.125 µg/mL (≈ 0.122 µM). For the same compound, the MIC [4, 7] was 0.5 µg/mL.

`CO[C@H]1/C=C/O[C@@]2(C)Oc3c(C)c(O)c4c(c3C2=O)C2=NC3(CCN(CC(C)C)CC3)NC2=C(NC(=O)/C(C)=C\C=C\[C@H](C)[C@H](O)[C@@H](C)[C@@H](O)[C@@H](C)[C@H](OC(=O)N2CCN(CCN3CCOCC3)CC2)[C@@H]1C)C4=O` [Compound 13] was tested, and the MIC [1, 5] was no more than 0.002 µg/mL, the MIC [2, 6] was 0.5 µg/mL (≈ 0.485 µM) and the MIC [3] was 0.06 µg/mL (≈ 0.0582 µM). The MIC [4, 7] was 0.5 µg/mL.

`CO[C@H]1/C=C/O[C@@]2(C)Oc3c(C)c(O)c4c(c3C2=O)C2=NC3(CCN(CC(C)C)CC3)NC2=C(NC(=O)/C(C)=C\C=C\[C@H](C)[C@H](O)[C@@H](C)[C@@H](O)[C@@H](C)[C@H](OC(=O)N2CCCN(c3ccccn3)CC2)[C@@H]1C)C4=O` [Compound 15] gave an MIC [1, 5] of 0.008 µg/mL, an MIC [2, 6] of 1 µg/mL (≈ 0.992 µM) and an MIC [3] of 0.06 µg/mL (≈ 0.0595 µM). For the same compound, the MIC [4, 7] was 0.5 µg/mL.

With `CO[C@H]1/C=C/O[C@@]2(C)Oc3c(C)c(O)c4c(c3C2=O)C2=NC3(CCN(CC(C)C)CC3)NC2=C(NC(=O)/C(C)=C\C=C\[C@H](C)[C@H](O)[C@@H](C)[C@@H](O)[C@@H](C)[C@H](OC(=O)N2CCCN(c3ccc(F)cc3)CC2)[C@@H]1C)C4=O` [Compound 16] the MIC [1, 5] was 0.03 µg/mL, the MIC [2, 6] was 2 µg/mL (≈ 1.95 µM) and the MIC [3] was 0.25 µg/mL (≈ 0.244 µM). For the same compound, the MIC [4, 7] was 1 µg/mL.

`CO[C@H]1/C=C/O[C@@]2(C)Oc3c(C)c(O)c4c(c3C2=O)C2=NC3(CCN(CC(C)C)CC3)NC2=C(NC(=O)/C(C)=C\C=C\[C@H](C)[C@H](O)[C@@H](C)[C@@H](O)[C@@H](C)[C@H](OC(=O)N2CCN(Cc3ccccc3)CC2)[C@@H]1C)C4=O` [Compound 17] was tested, and the MIC ([1]; 20 h) was 0.125 µg/mL, the MIC ([2]; ATCC19977, 96 h, read-out: MIC M. abscessus MH) was 1 µg/mL (≈ 0.993 µM) and the MIC [3] was 0.25 µg/mL (≈ 0.248 µM). It also gave an MIC ([4]; ATCC19977, 96 h, read-out: MIC M. abscessus 7H9) of 0.125 µg/mL.

`CO[C@H]1/C=C/O[C@@]2(C)Oc3c(C)c(O)c4c(c3C2=O)C2=NC3(CCN(CC(C)C)CC3)NC2=C(NC(=O)/C(C)=C\C=C\[C@H](C)[C@H](O)[C@@H](C)[C@@H](O)[C@@H](C)[C@H](OC(=O)N2CCC3(CCN(C)CC3)CC2)[C@@H]1C)C4=O` [Compound 21] showed an MIC [1, 5] of no more than 0.016 µg/mL, an MIC (M. kansasii (ATCC 12478)) of 0.125 µg/mL and an MIC [2, 6] of 2 µg/mL (≈ 2 µM). The MIC (M. avium (ATCC 25291)) was 0.5 µg/mL, the MIC [3] was 0.06 µg/mL (≈ 0.06 µM) and the MIC (M. xenopi (ATCC 19250)) was 0.25 µg/mL.

`CCCCN1CCC(NC(=O)O[C@H]2[C@H](C)[C@H](O)[C@H](C)[C@@H](O)[C@@H](C)/C=C/C=C(/C)C(=O)NC3=C4NC5(CCN(CC(C)C)CC5)N=C4c4c(c(O)c(C)c5c4C(=O)[C@@](C)(O/C=C/[C@H](OC)[C@H]2C)O5)C3=O)CC1` [Compound 30] was tested, and the MIC [1, 5] was no more than 0.016 µg/mL, the MIC (M. kansasii (ATCC 12478)) was 0.016 µg/mL and the MIC [2, 6] was 0.5 µg/mL (≈ 0.506 µM). It also gave an MIC (M. avium (ATCC 25291)) of 0.125 µg/mL, an MIC [3] of 0.06 µg/mL (≈ 0.0608 µM) and an MIC (M. xenopi (ATCC 19250)) of 0.06 µg/mL.

`CCCCN1CCN(C(=O)O[C@H]2[C@H](C)[C@H](O)[C@H](C)[C@@H](O)[C@@H](C)/C=C/C=C(/C)C(=O)NC3=C4NC5(CCN(CC(C)C)CC5)N=C4c4c(c(O)c(C)c5c4C(=O)[C@@](C)(O/C=C/[C@H](OC)[C@H]2C)O5)C3=O)CC1` [Compound 50] was tested, and the MIC [1, 5] was 0.03 µg/mL, the MIC (M. kansasii (ATCC 12478)) was 0.008 µg/mL and the MIC [2, 6] was 0.25 µg/mL (≈ 0.257 µM). It also gave an MIC (M. avium (ATCC 25291)) of 0.125 µg/mL, an MIC [3] of 0.125 µg/mL (≈ 0.128 µM) and an MIC (M. xenopi (ATCC 19250)) of 0.008 µg/mL.

`CO[C@H]1/C=C/O[C@@]2(C)Oc3c(C)c(O)c4c(c3C2=O)C2=NC3(CCN(CC(C)C)CC3)NC2=C(NC(=O)/C(C)=C\C=C\[C@H](C)[C@H](O)[C@@H](C)[C@@H](O)[C@@H](C)[C@H](OC(=O)N2CCN(CC3CC3)CC2)[C@@H]1C)C4=O` [Compound 56] gave an MIC [1, 5] of no more than 0.016 µg/mL, an MIC (M. kansasii (ATCC 12478)) of 0.004 µg/mL and an MIC [2, 6] of 0.25 µg/mL (≈ 0.257 µM). The MIC (M. avium (ATCC 25291)) was 0.06 µg/mL, the MIC [3] was 0.125 µg/mL (≈ 0.129 µM) and the MIC (M. xenopi (ATCC 19250)) was 0.008 µg/mL.

`CO[C@H]1/C=C/O[C@@]2(C)Oc3c(C)c(O)c4c(c3C2=O)C2=NC3(CCN(CC(C)C)CC3)NC2=C(NC(=O)/C(C)=C\C=C\[C@H](C)[C@H](O)[C@@H](C)[C@@H](O)[C@@H](C)[C@H](OC(C)=O)[C@@H]1C)C4=O` [Rifabutin, rifabutin] gave an MIC [1, 5] of no more than 0.002 µg/mL, an MIC [2, 6] of 16 µg/mL (≈ 18.9 µM) and an MIC ([2]; ATCC19977, Mueller Hinton broth, read-out: MIC value against M. abscessus in Mueller Hinton broth) of 16 µg/mL (≈ 18.9 µM). It also gave an MIC [3] of 0.016 µg/mL (≈ 0.0189 µM), an MIC [4, 7] of 8 µg/mL and an MIC ([4]; ATCC19977, 7H9 broth, read-out: MIC value against M. abscessus in 7H9 broth) of 8 µg/mL.
